Laboratory results reported in paper PMC9764287, “Multivalent Fucosides Targeting β-Propeller Lectins from Lung Pathogens with Promising Anti-Adhesive Properties” (ACS Chemical Biology, 2022).
Values joined by “and” are separate entries in the source; they are usually repeats but may differ in a detail not shown here. Equal values may be shown once. Read-outs that look alike come from different tables or passages of the source.

Legend:
[1] = target: T1, BambL (Burkholderia ambifaria, UniProt Q0B4G1); test: Isothermal titration calorimetry (ITC); format: binding; settings: for Kd: 20 mM Tris, 100 mM NaCl, pH 8.0; for -TΔS (kJ/mol) BambL binding / ΔH (kJ/mol) BambL binding / N BambL binding (Table S3): Table S3, ITC 25 °C; for N BambL binding (Table S3): as printed in SI, one third of the per-trimer N of Table 2
From the text: (§1) Due to the time-consuming measurements and the high quantity of protein necessary in some techniques, we selected only the four inhibitors with the largest size (compounds with PEGn=4 and hPG-20) for further biophysical analysis. More in-depth studies were continued by isothermal titration calorimetry (ITC) and bio-layer interferometry (BLI), which confirmed the trends previously seen by FP (Table 2). In the ITC experiments, the fungal lectins bound their monovalent reference with a stoichiometry (N) value around […], which is consistent with the number of high-affinity binding sites per monomer. With the value close to […] obtained for BambL, the reference experiments are indicative of active recombinant proteins and correlate well with previous findings in the literature.[39],[41] […] This calls for a likely mixed chelate-aggregative binding, whose precise architecture cannot be determined based solely on the compound/protein ratio.
(§2) 1.2 I sotherm al ti trati on c al ori m etry
(§3) Protein targets were pl ace d i n t he sample cell at concentrations ranging between 50 an d 8.5 μM at 25 °C. […]
Ta b le S3. Microcalorimetry data relative to B am bL binding.

[2] = target: T2, FleA (Aspergillus fumigatus, UniProt Q4WW81); test: Isothermal titration calorimetry (ITC); format: binding; settings: for Kd: 20 mM Tris, 100 mM NaCl, pH 8.0; for N stoichiometry FleA ITC: ratio of compound per FleA monomer (six binding sites); for -TΔS (kJ/mol) FleA binding / ΔH (kJ/mol) FleA binding: Table S1, ITC 25 °C
T2 construct: 6xHis (TEV-cleavable) (N, cleaved yes); made in house
From the text: as §1, §2, §3
Ta b le S1. Microcalorimetry data relative to Fl e A binding.

[3] = target: T2, FleA; parameters: method as in PMID 25760594; settings: SPR experiment; read-out: Kd of binding for FleA; cited from earlier work
[4] = target: T1, BambL; test: Competitive fluorescence polarization (FP) assay; format: binding; settings: Fuc-FITC probe 6 nM, protein 100 nM, average over two independent experiments, read-out: IC50 (nM) ± SD BambL
From the text: (§4) With the targeted lectins in hand, we could screen the inhibitory properties of the synthesized compounds by a competitive binding assay based on fluorescence polarization (FP). […] In general, results confirmed the power of multivalency as IC50 values improved from the micromolar range for the monosaccharide reference to the nanomolar range for the multivalent counterparts (Table 1).
(§5) 1.1 F l uoresc en c e pol ari z ati on c om peti ti ve assay
(§6) The fluorescen t ligan d Fu c -FI TC (F i g ur e S 1 ) w as pr e par e d f r om com poun d 2a followin g a protocol reported in literature.1 T y pi cal l y , a s t ock s ol uti on of pr ote i n (f i n al con ce n tr ati on 100 n M) an d Fu c -FI TC (final concentration 6 n M) w e r e adde d to 3 -f ol d serial dilution s of testin g compoun ds in dupl i cat e s on a bl ack 9 6 well microtiter plate (CO S T A R TM 96) . […] The starting concentration for the monovalent com poun d w as 3 mM an d 5 -fold dilution s were used in this case. All compon en ts were dissolved in the same buffer (20 mM Tris, 100 mM N aCl , pH 8.0). After addition of the reagents, the microtiter plates were s hak e d f or 1 h at room temperature i n t he dar k . […] A fluorescen ce in ten sity spectral scan of the multivalent compounds alone was also performed to confirm no interference with the analysis. […] The point of inflection was used to determine the IC50 value of each experiment. […]
(§7) Fi gu re S1 . The structure of the fluorescent probe Fu c -FI TC.

[5] = target: T3, SapL1 (Scedosporium apiospermum, UniProt A0A084FYP2); test: Competitive fluorescence polarization (FP) assay; format: binding; settings: read-out: IC50 (nM) ± SD SapL1, Fuc-FITC probe 6 nM, protein 100 nM, average over two independent experiments
From the text: as §4, §5, §6, §7

[6] = target: T2, FleA; test: Competitive fluorescence polarization (FP) assay; format: binding; settings: Fuc-FITC probe 6 nM, protein 100 nM, average over two independent experiments, read-out: IC50 (nM) ± SD FleA
From the text: as §4, §5, §6, §7

[7] = target: T1, BambL; test: Bio-layer interferometry (BLI), biotinylated lectin on streptavidin sensor; format: binding; settings: read-out: Kobs (nM) BambL BLI; 25 °C; protein immobilized
From the text: (§8) Applying different techniques to study the mechanism of multivalent binding is always advisable to better understand the process at a molecular level.[44] BLI is a biophysical technique where the target protein can be immobilized on the surface of the sensor, so problems related to aggregation should be eliminated. This technology has in fact been applied to the study of lectin-multivalent glycoconjugate interactions in a reliable, low-cost, and fast way.[45] […] A discrepancy of this nature is not too surprising considering that in the BLI experiment, one of the binding partners is immobilized, so its Kd’s might be better labeled as Kobs. Different techniques measure inherently different properties. It has been pointed out in a recent publication that drastically different outcomes can be obtained from solution to surface experimental approaches and that these variations are highly dependent on the accessibility of the binding motif.[46] The arrangement of glycans and the linker used for immobilization have shown to influence affinity on the glycan array setting. Therefore, it is likely that also the arrangement of a protein on the surface can have a similar effect when the setting is reversed.[46],[47] The difference in affinities between ITC and BLI for the fungal versus the bacterial lectins may relate to their orientation on the surface. The proteins were immobilized to the surface of a streptavidin-coated sensor through biotinylation of their lysine residues. BambL has only one lysine per monomer, opposite to the binding surface, while FleA and SapL1 have several, some of which close to the binding sites. It is plausible that this would influence the binding of the lectins to the sensor and the exposure of their sites. […] In contrast, all binding sites and modalities are accessible in solution during ITC.
(§9) 1.4 B i ol ayer i n terferom etry
(§10) The mixture was incubate d for 30 minutes with stirring. […] Biotinylated protein at 100nM concentrations were loaded on the sensor. […]

[8] = target: T3, SapL1; test: as above; format: binding; settings: read-out: Kobs (nM) SapL1 BLI; 25 °C; protein immobilized
From the text: as §8, §9, §10

[9] = target: T2, FleA; test: as above; format: binding; settings: 25 °C; protein immobilized; read-out: Kobs (nM) FleA BLI
From the text: as §8, §9, §10

[10] = target: T3, SapL1; test: Isothermal titration calorimetry (ITC); format: binding; settings: for N stoichiometry SapL1 ITC: ratio of compound per SapL1 monomer (six binding sites); for -TΔS (kJ/mol) SapL1 binding / ΔH (kJ/mol) SapL1 binding: Table S2, ITC 25 °C
From the text: as §1, §2, §3
Ta b le S2. Microcalorimetry data relative to S apL1 binding. […]

[11] = target: FleA, SapL1, and BambL; parameters: method as in PMID 24340081, PMID 34373510, PMID 22170069; settings: range over FleA, read-out: Kd of α-methyl fucose; cited from earlier work
[12] = test system: adhesion of Af293.1 spores to A549 cells; test: Adhesion assay of A. fumigatus conidia to lung epithelial cells; format: cell-based, Aspergillus fumigatus
Experimental: In our adhesion assay, A549 cells were cultured in a well-plate until a confluent layer was obtained and then challenged with A. fumigatus conidia in the presence or absence of FleA inhibitors. After incubation and washing to remove unbound spores from the cell layer, imaging was performed by confocal microscopy (Figure 4). The detection of fungi was facilitated by the availability of Af293.1, a strain originally derived from a clinical isolate and genetically modified to constitutively express red fluorescent protein.[53] Cell nuclei were stained with Hoechst fluorescent dye for visualization.[54] Cell and spore counts were calculated by ImageJ software and used to express adhesion efficiencies.
Figure 5 Adhesion of Af293.1 to A459. The black bars refer to the conditions where compounds and spores were pre-incubated 1 h prior infection. The white-striped bars refer to the conditions where compounds were added 1 h after infection. *Significant difference to the control (chi-square test, followed by Bonferroni’s multiple comparison test).
[…] Unbound conidia were removed carefully by washin g 4 times with m e di a (D ME M + 10% F BS). […] Fluorescence emission of Hoechst was de te cte d us i n g the 400- 600 nm spectral band and red fluorescence emission of R F P was detected with the 560- 700 n m s pe ctr al ban d. […]

T3 sequence (A0A084FYP2 entry or part of it): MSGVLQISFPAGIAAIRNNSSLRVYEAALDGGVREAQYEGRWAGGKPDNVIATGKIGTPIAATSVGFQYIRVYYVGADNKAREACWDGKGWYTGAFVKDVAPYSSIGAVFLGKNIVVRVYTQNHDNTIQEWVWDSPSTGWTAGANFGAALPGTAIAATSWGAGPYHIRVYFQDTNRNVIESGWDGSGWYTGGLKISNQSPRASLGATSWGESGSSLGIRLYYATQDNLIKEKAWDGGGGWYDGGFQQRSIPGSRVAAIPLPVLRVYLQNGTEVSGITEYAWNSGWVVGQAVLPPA
T1 sequence (Q0B4G1 1-87): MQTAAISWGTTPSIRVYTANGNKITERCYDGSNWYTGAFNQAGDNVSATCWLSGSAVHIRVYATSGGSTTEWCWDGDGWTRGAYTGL
T2 sequence (Q4WW81 whole entry): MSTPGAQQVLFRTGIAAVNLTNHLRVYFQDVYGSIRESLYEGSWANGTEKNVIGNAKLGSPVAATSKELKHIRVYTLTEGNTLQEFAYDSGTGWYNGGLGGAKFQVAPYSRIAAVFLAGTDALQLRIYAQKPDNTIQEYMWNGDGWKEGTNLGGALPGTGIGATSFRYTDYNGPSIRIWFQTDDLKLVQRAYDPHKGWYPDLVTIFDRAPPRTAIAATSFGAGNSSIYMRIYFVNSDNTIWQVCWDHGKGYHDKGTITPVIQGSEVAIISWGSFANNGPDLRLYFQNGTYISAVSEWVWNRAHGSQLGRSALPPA

Structure (SMILES) | Kd ([1]; 25 °C) | -TΔS (kJ/mol) BambL binding [1] | ΔH (kJ/mol) BambL binding [1] | N BambL binding (Table S3) [1] | Kd ([2]; 25 °C) | N stoichiometry FleA ITC ([2]; 25 °C) | -TΔS (kJ/mol) FleA binding [2] | ΔH (kJ/mol) FleA binding [2] | Kd [3] | IC50 [4] | IC50 [6] | N stoichiometry SapL1 ITC ([10]; 25 °C) | -TΔS (kJ/mol) SapL1 binding [10] | ΔH (kJ/mol) SapL1 binding [10] | also measured
C[C@@H]1O[C@@H](OCCN=[N+]=[N-])[C@@H](O)[C@H](O)[C@@H]1O [2a] | 2140 ± 80 nM | 17 ± 1 kJ/mol | -50 ± 1 kJ/mol | 1.81 ± 0.01 | 97600 ± 300 nM | 4.1 ± 0.02 | 16 ± 4 kJ/mol | -39 ± 4 kJ/mol | – | – | – | – | – | – | –
C[C@@H]1OC(O)[C@@H](O)[C@H](O)[C@@H]1O (stereo partly drawn) [L-Fuc] | – | – | – | – | – | – | – | – | 209000 nM | – | – | – | – | – | –
C[C@@H]1O[C@@H](OCCNC(=O)CCOCCOCCOCCOCCNC(=O)Cc2ccc(SCc3c(CSc4ccc(CC(=O)NCCOCCOCCOCCOCCC(=O)NCCO[C@@H]5O[C@@H](C)[C@@H](O)[C@@H](O)[C@@H]5O)cc4)c(CSc4ccc(CC(=O)NCCOCCOCCOCCOCCC(=O)NCCO[C@@H]5O[C@@H](C)[C@@H](O)[C@@H](O)[C@@H]5O)cc4)c(CSc4ccc(CC(=O)NCCOCCOCCOCCOCCC(=O)NCCO[C@@H]5O[C@@H](C)[C@@H](O)[C@@H](O)[C@@H]5O)cc4)c(CSc4ccc(CC(=O)NCCOCCOCCOCCOCCC(=O)NCCO[C@@H]5O[C@@H](C)[C@@H](O)[C@@H](O)[C@@H]5O)cc4)c3CSc3ccc(CC(=O)NCCOCCOCCOCCOCCC(=O)NCCO[C@@H]4O[C@@H](C)[C@@H](O)[C@@H](O)[C@@H]4O)cc3)cc2)[C@@H](O)[C@H](O)[C@@H]1O [hexa-4] | 4.7 ± 0.9 nM | 249 ± 10 kJ/mol | -296 ± 9 kJ/mol | 0.35 ± 0.01 | 115 ± 4 nM | 0.8 ± 0.02 and 0.8 | 206 ± 6 kJ/mol | -246 ± 6 kJ/mol | – | 31 ± 3 nM | 148 ± 6 nM | 0.72 ± 0.02 and 0.72 | 155 ± 12 kJ/mol | -199 ± 13 kJ/mol | IC50 [5]: 43 ± 6 nM; β affinity enhancement (Kd,mono/Kd,multi) BambL ITC ([1]; 25 °C): 455; N stoichiometry BambL ITC ([1]; 25 °C, ratio of compound per BambL trimer (six binding sites)): 1.05; β/v affinity enhancement per single sugar BambL ITC ([1]; 25 °C, v = valency): 76; Kd [7]: 1.6 ± 0.1 nM; Kd [8]: 1.2 ± 0.2 nM; Kd [9]: 4.1 ± 0.1 nM; β affinity enhancement (Kd,mono/Kd,multi) FleA ITC ([2]; 25 °C): 849; β/v affinity enhancement per single sugar FleA ITC ([2]; 25 °C, v = valency): 142; β affinity enhancement (Kd,mono/Kd,multi) SapL1 ITC ([10]; 25 °C): 2735; β/v affinity enhancement per single sugar SapL1 ITC ([10]; 25 °C, v = valency): 456; Kd ([10]; read-out: Kd (nM) SapL1 ITC, 25 °C, 20 mM Tris, 100 mM NaCl, pH 8.0): 25 nM and 24.9 nM
CO[C@@H]1O[C@@H](C)[C@@H](O)[C@@H](O)[C@@H]1O [α-Me-Fuc, α-methyl fucose, reference compound] | – | – | – | – | – | – | – | – | – | 1400 ± 200 nM | 111000 nM | 3.52 ± 0.13 | 27 ± 2 kJ/mol | -63 ± 11 kJ/mol | Kd [11]: 1000 to 200000 nM; anti-adhesive effect ([12]; 0.1 mM, spores preincubated with compound, MOI 2, Figure S3): ineffective; concentration needed to elicit any measurable anti-adhesive properties ([12]; control experiment, preincubation): 1 mM
CC(=O)N[C@H]1C(O)O[C@H](CO)[C@@H](O[C@@H]2O[C@@H](C)[C@@H](O)[C@@H](O)[C@@H]2O)[C@@H]1O (stereo partly shown) [αFuc(1–4)GlcNAc] | – | – | – | – | – | – | – | – | 63000 nM | – | – | – | – | – | –
